Consider one substance from patent US8029799B2, “Use of thymosin alpha 1 for preparing a medicament for the treatment of stage IV malignant melanoma” (SciClone Pharmaceuticals, Inc., priority 2006, dated 2011).

Ends that are not written are not given here.

In test [1] the test system is Stage IV Melanoma Characterized by Distant Unresectable Metastases. Briefly: Phase II clinical trial, tumor response (RECIST) in stage IV melanoma patients. In kind it is in vivo, human. The following applies: preliminary analysis on 142 patients; higher doses of Tα1.
Experimental: Trial Design phase II, randomized, stratified, open-study testing different doses of Tα1 in association with DTIC and IFNα, as first line therapy for stage IV melanoma patients characterized by distant unresectable metastases (AJCC; Journal of Clinical Oncology 2001, 19: 3635-3648) without brain metastases. The primary study end-point was tumor response, and the following combination composition were used: • DTIC (800 mg/m^2)+IFNα (3 MIU)+Tα1 (1.6 mg) (97 pts); • DTIC (800 mg/m^2)+IFNα (3 MIU)+Tα1 (3.2 mg) (97 pts); • DTIC (800 mg/m^2)+Tα1 (3.2 mg) (98 pts); • DTIC (800 mg/m^2)+IFNα (3 MIU) (94 pts);
The five groups were analyzed independently one another within the so-called “pick the winner” strategy.
Methods: Recycling every 28 days, patients were administered DTIC (800 mg/m^2) i.v. at day 1, Tα1 (1.6, 3.2 or 6.4 mg) s.c. at days 8-11 and 15-18, and IFNα (3 MIU) s.c. at day 11 and 18. Clinical response was evaluated every two cycles according to RECIST criteria (New Guidelines to Evaluate the Response to Treatment in Solid Tumors; Journal of the National Cancer Institute, 2000. 92: 205-216) utilizing a central reader.
The randomized patients were stratified according to the disease site: M1a, M1b or M1c level.
1) Patients with cutaneous, subcutaneous and/or limphnodal metastases with normal serum LDH value (from 96 to 460 U/L) were classified as M1a. […]
The subject of test [2] is human non-small cell lung cancer (NSCLC) cells. The note with it: 1 or 10 mg per day subcutaneous; nude mice inoculated with human NSCLC cells; cited from earlier work.
In test [3] the test system is methylcholanthrene-induced fibrosarcoma. The note with it: mice with methylcholanthrene-induced fibrosarcoma; cited from earlier work.
The test system of the next test is lymphosarcoma cells. The following applies: BALB/c mice; cited from earlier work.

As for “thymosin alpha 1 (SDAAVDTSSEITTKDLKEKKEVVEEAEN; ends and bridges not checked; UniProt P06454 2-29, looked up) [a compound well known in the medical field]”, the dose-response effect result in test [1] is “clear dose-response effect”. For the same substance, the tumor volume result in test [2] is given as “significantly decreased”. For the same substance, in test [3], the pulmonary metastases result was “reduced”. Also, in the test with lymphosarcoma cells, the “liver and lung metastases of lymphosarcoma cells” value is “significantly reduced”; the local sarcoma growth entry is given as “significantly reduced”.
